Earlier results as cited in patent publication US10501455B2, “Inhibitors of leukotriene A4 hydrolase” (Celtaxsys, Inc., priority 2013, dated 2019).

Columns and labels:
[1] = target: T1, LTA4-h (Mus musculus, UniProt P24527); details: oral administration, mouse blood ex vivo; cited from earlier work
T1 construct: host or cells: mouse blood ex vivo
T1 sequence (P24527 1-611): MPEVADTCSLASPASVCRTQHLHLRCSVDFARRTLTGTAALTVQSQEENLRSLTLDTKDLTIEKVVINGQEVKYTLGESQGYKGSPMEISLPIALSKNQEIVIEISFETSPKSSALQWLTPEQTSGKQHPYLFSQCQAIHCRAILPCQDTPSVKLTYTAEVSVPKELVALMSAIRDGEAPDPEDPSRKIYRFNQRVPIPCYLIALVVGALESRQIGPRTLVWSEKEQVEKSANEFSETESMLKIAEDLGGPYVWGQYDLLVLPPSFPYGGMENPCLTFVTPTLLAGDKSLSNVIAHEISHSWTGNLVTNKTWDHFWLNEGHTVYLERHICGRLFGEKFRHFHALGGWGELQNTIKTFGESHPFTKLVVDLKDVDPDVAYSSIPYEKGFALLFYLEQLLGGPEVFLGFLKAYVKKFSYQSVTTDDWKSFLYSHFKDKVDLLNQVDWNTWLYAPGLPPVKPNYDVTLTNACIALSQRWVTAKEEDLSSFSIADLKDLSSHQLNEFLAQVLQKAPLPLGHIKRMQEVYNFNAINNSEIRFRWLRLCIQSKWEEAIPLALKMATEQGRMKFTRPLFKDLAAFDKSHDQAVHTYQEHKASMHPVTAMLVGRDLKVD

[2] = target: T2, LTA4-h (Rattus norvegicus, UniProt P30349); details: oral administration, rat peritoneum in vivo; cited from earlier work
T2 construct: host or cells: rat peritoneum in vivo
T2 sequence (P30349 1-611): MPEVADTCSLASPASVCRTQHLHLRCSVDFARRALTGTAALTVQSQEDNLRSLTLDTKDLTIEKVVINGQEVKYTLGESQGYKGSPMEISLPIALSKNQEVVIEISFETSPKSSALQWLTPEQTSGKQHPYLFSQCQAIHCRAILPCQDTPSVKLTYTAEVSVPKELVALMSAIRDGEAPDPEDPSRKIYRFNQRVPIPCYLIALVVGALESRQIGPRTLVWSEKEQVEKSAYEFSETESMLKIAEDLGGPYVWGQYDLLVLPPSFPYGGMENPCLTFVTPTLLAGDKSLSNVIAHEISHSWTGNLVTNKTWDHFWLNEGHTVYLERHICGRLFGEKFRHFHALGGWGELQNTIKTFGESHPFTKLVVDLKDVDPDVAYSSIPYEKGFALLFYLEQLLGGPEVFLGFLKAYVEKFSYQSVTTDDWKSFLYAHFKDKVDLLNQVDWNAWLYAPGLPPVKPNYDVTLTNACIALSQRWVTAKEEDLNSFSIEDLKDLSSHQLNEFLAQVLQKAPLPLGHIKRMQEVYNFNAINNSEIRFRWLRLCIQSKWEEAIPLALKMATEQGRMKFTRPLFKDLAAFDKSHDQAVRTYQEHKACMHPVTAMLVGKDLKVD

[3] = test system: colitis; details: eight weeks of treatment, cotton top tamarins; cited from earlier work

CN(CCCOc1ccc(Cc2ccccc2)cc1)CCC(=O)O.Cl [SC57461]
inhibition of ionophore-induced LTB4 production [1]: caused inhibition
inhibition of ionophore-induced LTB4 production [2]: caused inhibition
colitis symptoms [3]: significantly improved colitis symptoms
